Assays:
MKNK1 [1] = target: T1, MKNK1 (Homo sapiens, UniProt Q9BUB5, T385D); assay: MKNK1 kinase high ATP assay (TR-FRET-based); type: biochemical; conditions: 2 mM ATP, 15 min preincubation
T1 construct: GST (N); purchased Carna Biosciences 02-145; host or cells: insect cells (baculovirus expression system)
Outline: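 GST-tagged full-length human MKNK1 (aa 1-424, T344D) from insect cells, preincubated with compound 15 min at 22 °C. Reaction 30 min at 22 °C with 2 mM ATP and 0.06 μM biotinylated peptide in HEPES pH 7.5, Mg2+, DTT. Phosphopeptide detected by TR-FRET (665/622 ratio) with anti-pS6 (pSer236) antibody; normalised to no-inhibitor and no-enzyme controls.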

MKNK1 [2] = target: T1, MKNK1; assay: MKNK1 kinase assay (MKNK1 TR-FRET assay); type: biochemical; conditions: 10 μM ATP, 15 min preincubation

T1 sequence (Q9BUB5 1-424 isoform Q9BUB5-2 T344D): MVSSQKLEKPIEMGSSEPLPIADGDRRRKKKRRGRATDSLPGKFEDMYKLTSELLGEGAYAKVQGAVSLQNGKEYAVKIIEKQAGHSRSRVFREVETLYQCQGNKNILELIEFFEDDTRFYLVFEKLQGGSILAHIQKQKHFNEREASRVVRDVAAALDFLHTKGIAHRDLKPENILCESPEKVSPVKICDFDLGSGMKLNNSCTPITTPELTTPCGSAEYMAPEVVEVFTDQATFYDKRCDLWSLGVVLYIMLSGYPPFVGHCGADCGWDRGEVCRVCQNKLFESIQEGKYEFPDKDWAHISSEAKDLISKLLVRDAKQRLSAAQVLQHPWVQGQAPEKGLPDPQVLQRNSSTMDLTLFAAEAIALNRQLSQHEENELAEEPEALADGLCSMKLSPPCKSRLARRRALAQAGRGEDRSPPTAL

IC50 (MKNK1 [1]; Table 2c) | IC50 (MKNK1 [2]; Table 1c) | IC50 (MKNK1 [1]; Table 2a) | IC50 (MKNK1 [2]; Table 1a) | Compound | other results
6 nM | 2.1 nM |  |  | COCCN(C)c1nccc2oc(-c3cnc4ccc(OC[C@H](C)N)nn34)cc12 [III-16, 2-(6-{[(2S)-2-Aminopropyl]oxy}imidazo[1,2-b]pyridazin-3-yl)-N-(2-methoxyethyl)-N-methylfuro[3,2-c]pyridin-4-amine] | 
 |  |  |  | CCN(CCOC)c1cccc2oc(-c3cnc4ccc(OC[C@H](C)N)nn34)cc12 [II-24, 2-(6-{[(2S)-2-Aminopropyl]oxy}imidazo[1,2-b]pyridazin-3-yl)-N-ethyl-N-(2-methoxyethyl)-1-benzofuran-4-amine] | IC50 (MKNK1 [1]; Table 2b): 3.2 nM; IC50 (MKNK1 [2]; Table 1b): 3.3 nM
 |  | 14.4 nM | 4.6 nM | Cc1ccccc1C(=O)NCCOc1ccc2ncc(-c3cc4ccccc4o3)n2n1 [Example I-71, N-(2-{[3-(1-Benzofuran-2-yl)imidazo[1,2-b]-pyridazin-6-yl]oxy}ethyl)-2-methylbenzamide] | 
 |  |  |  | CC(C)Oc1nccc2oc(-c3cnc4ccc(OC[C@H]5CNCC(=O)N5)nn34)cc12 [IV-13, (6R)-6-[({3-[4-(Propan-2-yloxy)furo[3,2-c]pyridin-2-yl]imidazo[1,2-b]pyridazin-6-yl}oxy)methyl]piperazin-2-one] | IC50 (MKNK1 [1]; Table 2d): 43 nM; IC50 (MKNK1 [2]; Table 1d): 22 nM
1.4 nM | 3.3 nM |  |  | CC1(C)CN(c2nccc3oc(-c4cnc5ccc(OC[C@H]6CCC(=O)N6)nn45)cc23)CCN1 [III-141, (5R)-5-[({3-[4-(3,3-dimethylpiperazin-1-yl)furo[3,2-c]pyridin-2-yl]imidazo[1,2-b]pyridazin-6-yl}oxy)methyl]pyrrolidin-2-one] | 
1.2 nM | 0.8 nM |  |  | CCN(CCOC)c1nccc2oc(-c3cnc4ccc(O[C@H]5C[C@H](N)C5)nn34)cc12 [III-101, 2-{6-[(trans-3-Aminocyclobutyl)oxy]imidazo[1,2-b]pyridazin-3-yl}-N-ethyl-N-(2-methoxyethyl)furo[3,2-c]pyridin-4-amine] | 
21.7 nM | 11.6 nM |  |  | C[C@H](N)COc1ccc2ncc(-c3cc4c(N5CCOCC5)nccc4o3)n2n1 [III-7, (2S)-1-({3-[4-(Morpholin-4-yl)furo[3,2-c]pyridin-2-yl]imidazo[1,2-b]pyridazin-6-yl}oxy)propan-2-amine] | 
12.4 nM | 2.7 nM |  |  | C[C@H](N)COc1ccc2ncc(-c3cc4c(N5CC[C@@H](N(C)C)C5)nccc4o3)n2n1 [III-11, (3R)-1-[2-(6-{[(2S)-2-Aminopropyl]oxy}imidazo[1,2-b]pyridazin-3-yl)furo[3,2-c]pyridin-4-yl]-N,N-dimethylpyrrolidin-3-amine] | 
 |  | 10.1 nM | 4 nM | O=C(c1ccc(Cl)cc1)N1CCC[C@H]1CCOc1ccc2ncc(-c3cc4ccccc4o3)n2n1 [Example I-63, [(2S)-2-(2-{[3-(1-Benzofuran-2-yl)imidazo[1,2-b]-pyridazin-6-yl]oxy}ethyl)pyrrolidin-1-yl](4-chlorophenyl)methanone] | 
 |  | 70 nM | 17 nM | CC(C)(C)NC(=O)COc1ccc2ncc(-c3cc4ccccc4o3)n2n1 [Example I-37, 2-{[3-(1-Benzofuran-2-yl)imidazo[1,2-b]pyridazin-6-yl]oxy}-N-tert-butyl-acetamide] | 
2.5 nM | 6.8 nM |  |  | CC1(C)CN(c2nccc3oc(-c4cnc5ccc(OC[C@@H]6CCC(=O)N6)nn45)cc23)CCO1 [III-132, (5S)-5-[({3-[4-(2,2-dimethylmorpholin-4-yl)furo[3,2-c]pyridin-2-yl]imidazo[1,2-b]pyridazin-6-yl}oxy)methyl]pyrrolidin-2-one] | 
 |  | 17.7 nM | 6.6 nM | COc1cccc2oc(-c3cnc4ccc(OC[C@H]5CN(C(=O)C(C)(C)C)CCO5)nn34)cc12 [Example I-21, 1-[(2R)-2-({[3-(4-Methoxy-1-benzofuran-2-yl)imidazo[1,2-b]pyridazin-6-yl]-oxy}methyl)morpholin-4-yl]-2,2-dimethylpropan-1-one] | 
 |  | 18.8 nM | 15.7 nM | O=C(N[C@H]1C[C@H](Oc2ccc3ncc(-c4cc5ccccc5o4)n3n2)C1)C(F)(F)F [Example I-23, N-(trans-3-{[3-(1-Benzofuran-2-yl)imidazo[1,2-b]pyridazin-6-yl]oxy}cyclobutyl)-2,2,2-trifluoroacetamide] | 
 |  |  |  | C[C@H]1CNCCN1c1cccc2oc(-c3cnc4ccc(OC[C@@H]5CCC(=O)N5)nn34)cc12 [II-38, (5S)-5-{[(3-{4-[(2S)-2-methylpiperazin-1-yl]-1-benzofuran-2-yl}imidazo[1,2-b]pyridazin-6-yl)oxy]methyl}pyrrolidin-2-one] | IC50 (MKNK1 [1]; Table 2b): 1.4 nM; IC50 (MKNK1 [2]; Table 1b): 4.6 nM
1.2 nM | 1 nM |  |  | CN1CCN(c2nccc3oc(-c4cnc5ccc(OC[C@H]6CCC(=O)N6)nn45)cc23)CC1 [III-61, (5R)-5-[({3-[4-(4-Methylpiperazin-1-yl)furo[3,2-c]pyridin-2-yl]imidazo[1,2-b]pyridazin-6-yl}oxy)methyl]pyrrolidin-2-one] | 
 |  |  |  | COC[C@H]1CCCN1c1cccc2oc(-c3cnc4ccc(OC[C@H]5CNCCO5)nn34)cc12 [II-7, 3-{4-[(2R)-2-(Methoxymethyl)pyrrolidin-1-yl]-1-benzofuran-2-yl}-6-[(2R)-morpholin-2-ylmethoxy]imidazo[1,2-b]pyridazine] | IC50 (MKNK1 [1]; Table 2b): 4.2 nM; IC50 (MKNK1 [2]; Table 1b): 6.3 nM
 |  | 3.1 nM | 1.8 nM | CC(=O)N1CCC[C@H]1CCOc1ccc2ncc(-c3cc4ccccc4o3)n2n1 [Example I-2, 1-[(2S)-2-(2-{[3-(1-Benzofuran-2-yl)imidazo[1,2-b]pyridazin-6-yl]oxy}ethyl)-pyrrolidin-1-yl]ethanone] | 
 |  | 23 nM | 9 nM | O=C1CCC(CCOc2ccc3ncc(-c4cc5ccccc5o4)n3n2)N1 (stereo not drawn) [Example I-26, 5-(2-{[3-(1-Benzofuran-2-yl)imidazo[1,2-b]pyridazin-6-yl]oxy}ethyl)pyrrolidin-2-one] | 
1.5 nM | 5.3 nM |  |  | COc1ccc2ncc(-c3cc4c(N5CCNC(C)(C)C5)nccc4o3)n2n1 [III-130, 3-[4-(3,3-dimethylpiperazin-1-yl)furo[3,2-c]pyridin-2-yl]-6-methoxy-imidazo[1,2-b]pyridazine] | 
 |  |  |  | CC1(C)CN(c2cccc3oc(-c4cnc5ccc(OC[C@@H]6CCC(=O)N6)nn45)cc23)CCO1 [II-63, (5S)-5-[({3-[4-(2,2-dimethylmorpholin-4-yl)-1-benzofuran-2-yl]imidazo[1,2-b]pyridazin-6-yl}oxy)methyl]pyrrolidin-2-one] | IC50 (MKNK1 [1]; Table 2b): 39.5 nM; IC50 (MKNK1 [2]; Table 1b): 15.2 nM
0.3 nM | 0.4 nM |  |  | CCCN(CCOC)c1nccc2oc(-c3cnc4ccc(OC[C@H]5CCC(=O)N5)nn34)cc12 [III-82, (5R)-5-{[(3-{4-[(2-Methoxyethyl)(propyl)amino]furo[3,2-c]pyridin-2-yl}imidazo[1,2-b]pyridazin-6-yl)oxy]methyl}pyrrolidin-2-one] | 
 |  |  |  | C[C@@H]1CN(c2cccc3oc(-c4cnc5ccc(OC[C@H]6CCC(=O)N6)nn45)cc23)CCO1 [II-71, (5R)-5-{[(3-{4-[(2R)-2-methylmorpholin-4-yl]-1-benzofuran-2-yl}imidazo[1,2-b]pyridazin-6-yl)oxy]methyl}pyrrolidin-2-one] | IC50 (MKNK1 [1]; Table 2b): 6.1 nM; IC50 (MKNK1 [2]; Table 1b): 6.5 nM
2 nM | 1 nM |  |  | C[C@@H]1CN(c2nccc3oc(-c4cnc5ccc(OC[C@H]6CCC(=O)N6)nn45)cc23)C[C@H](C)O1 [III-72, (5R)-5-{[(3-{4-[(2R,6S)-2,6-Dimethylmorpholin-4-yl]furo[3,2-c]pyridin-2-yl}imidazo[1,2-b]pyridazin-6-yl)oxy]methyl}pyrrolidin-2-one] | 
 |  | 71.7 nM | 64 nM | O=C1NCCC1Oc1ccc2ncc(-c3cc4ccccc4o3)n2n1 (stereo not drawn) [Example I-38, 3-{[3-(1-Benzofuran-2-yl)imidazo[1,2-b]pyridazin-6-yl]oxy}pyrrolidin-2-one] | 
 |  | 12.5 nM | 5.6 nM | O=C(NCCOc1ccc2ncc(-c3cc4ccccc4o3)n2n1)C1CC1 [Example I-15, N-(2-{[3-(1-Benzofuran-2-yl)imidazo[1,2-b]pyridazin-6-yl]oxy}ethyl)-cyclopropanecarboxamide] | 
 |  |  |  | c1cc(N2CCOCC2)c2cc(-c3cnc4ccc(OC[C@H]5CNCCO5)nn34)oc2c1 [II-1, 3-[4-(Morpholin-4-yl)-1-benzofuran-2-yl]-6-[(2R)-morpholin-2-ylmethoxy]-imidazo[1,2-b]pyridazine] | IC50 (MKNK1 [1]; Table 2b): 20 nM; IC50 (MKNK1 [2]; Table 1b): 8.5 nM
 |  |  |  | c1cc(N2CCOCC2)c2cc(-c3cnc4ccc(O[C@@H]5CCNC5)nn34)oc2c1 [II-13, 3-[4-(Morpholin-4-yl)-1-benzofuran-2-yl]-6-[(3R)-pyrrolidin-3-yloxy]imidazo[1,2-b]pyridazine] | IC50 (MKNK1 [1]; Table 2b): 58 nM; IC50 (MKNK1 [2]; Table 1b): 39 nM
 |  | 16.5 nM | 5.6 nM | CCC(C)C(=O)NCCOc1ccc2ncc(-c3cc4ccccc4o3)n2n1 (stereo not drawn) [Example I-73, N-(2-{[3-(1-Benzofuran-2-yl)imidazo[1,2-b]-pyridazin-6-yl]oxy}ethyl)-2-methylbutanamide] | 
11.1 nM | 1.1 nM |  |  | COC[C@H]1CCCN1c1nccc2oc(-c3cnc4ccc(OC[C@@H]5COCCN5)nn34)cc12 [III-37, 3-{4-[(2R)-2-(Methoxymethyl)pyrrolidin-1-yl]furo[3,2-c]pyridin-2-yl}-6-[(3S)-morpholin-3-ylmethoxy]imidazo[1,2-b]pyridazine] | 
1.3 nM | 1.1 nM |  |  | CCCN(CCOC)c1nccc2oc(-c3cnc4ccc(O[C@H](C)CN)nn34)cc12 [III-33, 2-(6-{[(2R)-1-Aminopropan-2-yl]oxy}imidazo[1,2-b]pyridazin-3-yl)-N-(2-methoxyethyl)-N-propylfuro[3,2-c]pyridin-4-amine] | 

— patent US20160287589A1, “SUBSTITUTED-IMIDAZOPYRIDAZINES” (BAYER PHARMA AKTIENGESELLSCHAFT, priority 2013, published 2016)
